Each molecule was assayed against T1, recombinant N-terminal GST-tagged human Rho kinase 2 (ROCK2, amino acids 1-552) (Homo sapiens, UniProt O75116) (assay: In vitro Rho kinase assay (luciferase-based ATP consumption), ROCK2). Conditions: recombinant GST-tagged human ROCK2, luciferase-based ATP consumption; read-out: ROCK2 IC50.
T1 construct: ROCK2, amino acids 1-552; purchased Invitrogen Inc. PV3759
Format: biochemical
In short: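 Luciferase-based luminescence of leftover ATP after 2 h at 30 °C, where inhibition raises signal, reports activity of GST-tagged ROCK2 (aa 1-552) at 0.82 μg/ml. Conditions: S6 peptide 100 μg/ml, […], pH 7.5 Tris buffer. Results given as percent of H-1152P control activity.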

T1 sequence (O75116 1-552): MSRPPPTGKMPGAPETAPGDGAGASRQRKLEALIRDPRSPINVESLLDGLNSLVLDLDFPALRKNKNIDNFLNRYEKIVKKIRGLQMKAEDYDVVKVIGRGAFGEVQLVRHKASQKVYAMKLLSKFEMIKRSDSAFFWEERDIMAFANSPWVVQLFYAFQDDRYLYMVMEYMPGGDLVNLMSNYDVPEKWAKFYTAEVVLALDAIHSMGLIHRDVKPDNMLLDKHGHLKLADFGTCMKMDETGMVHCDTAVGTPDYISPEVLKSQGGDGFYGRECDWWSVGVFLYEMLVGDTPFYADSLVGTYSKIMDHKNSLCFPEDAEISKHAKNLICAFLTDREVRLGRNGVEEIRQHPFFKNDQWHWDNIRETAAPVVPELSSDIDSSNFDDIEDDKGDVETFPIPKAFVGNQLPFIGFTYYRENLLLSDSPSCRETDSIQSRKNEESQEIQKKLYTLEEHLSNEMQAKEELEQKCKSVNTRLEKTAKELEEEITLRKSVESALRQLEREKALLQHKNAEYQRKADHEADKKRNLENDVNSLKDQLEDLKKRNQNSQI

| SMILES | IC50 |
| --- | --- |
| Cc1c(-c2ccnc(N)n2)sc2ccc(C(=O)N(C)CC(O)c3ccccc3)cc12 (stereo not drawn) [Example 507, CN(CC(O)c1ccccc1)C(═O)c2ccc3sc(c(C)c3c2)-c4ccnc(N)n4] | < 5 µM |
| CCOC(=O)C1CCN(C(=O)c2ccc3sc(-c4ccnc(N)n4)c(C)c3c2)CC1 [Example 509, CCOC(═O)C1CCN(CC1)C(═O)c2ccc3sc(c(C)c3c2)-c4ccnc(N)n4] | > 5 µM |
| CCOC(=O)C1CCCN(C(=O)c2ccc3sc(-c4ccnc(N)n4)c(C)c3c2)C1 (stereo not drawn) [Example 510, CCOC(═O)C1CCCN(C1)C(═O)c2ccc3sc(c(C)c3c2)-c4ccnc(N)n4] | < 5 µM |
| CCOC(=O)N1CCN(C(=O)c2ccc3sc(-c4ccnc(N)n4)c(C)c3c2)CC1 [Example 511, CCOC(═O)N1CCN(CC1)C(═O)c2ccc3sc(c(C)c3c2)-c4ccnc(N)n4] | > 5 µM |
| CCCCN(Cc1ccccc1)C(=O)c1ccc2sc(-c3ccnc(N)n3)c(C)c2c1 [Example 515, CCCCN(Cc1ccccc1)C(═O)c2ccc3sc(c(C)c3c2)-c4ccnc(N)n4] | > 5 µM |
| Cc1c(-c2ccnc(N)n2)sc2ccc(C(=O)N(C)CC(O)c3ccc(O)cc3)cc12 (stereo not drawn) [Example 518, CN(CC(O)c1ccc(O)cc1)C(═O)c2ccc3sc(c(C)c3c2)-c4ccnc(N)n4] | < 5 µM |
| Cc1c(-c2ccnc(N)n2)sc2ccc(C(=O)N3CCN(C4CCCCC4)CC3)cc12 [Example 519, Cc1c(sc2ccc(cc12)C(═O)N3CCN(CC3)C4CCCCC4)-c5ccnc(N)n5] | > 5 µM |
| CCOC(=O)CC1C(=O)NCCN1C(=O)c1ccc2sc(-c3ccnc(N)n3)c(C)c2c1 (stereo not drawn) [Example 529, CCOC(═O)CC1N(CCNC1═O)C(═O)c2ccc3sc(c(C)c3c2)-c4ccnc(N)n4] | < 5 µM |
| Cc1c(-c2ccnc(N)n2)sc2ccc(C(=O)N3CCN(c4ccccc4C#N)CC3)cc12 [Example 532, Cc1c(sc2ccc(cc12)C(═O)N3CCN(CC3)c4ccccc4C#N)-c5ccnc(N)n5] | > 5 µM |
| Cc1cccc(N2CCN(C(=O)c3ccc4sc(-c5ccnc(N)n5)c(C)c4c3)CC2C)c1 (stereo not drawn) [Example 535, CC1CN(CCN1c2cccc(C)c2)C(═O)c3ccc4sc(c(C)c4c3)-c5ccnc(N)n5] | > 5 µM |
| Cc1c(-c2ccnc(N)n2)sc2ccc(C(=O)N3CCN(CCc4ccccc4)CC3)cc12 [Example 536, Cc1c(sc2ccc(cc12)C(═O)N3CCN(CC3)CCc4ccccc4)-c5ccnc(N)n5] | < 5 µM |
| Cc1ccc(N2CCN(C(=O)c3ccc4sc(-c5ccnc(N)n5)c(C)c4c3)CC2)c(C)c1 [Example 538, Cc1ccc(N2CCN(CC2)C(═O)c3ccc4sc(c(C)c4c3)-c5ccnc(N)n5)c(C)c1] | > 5 µM |
| Cc1ccc(C)c(N2CCN(C(=O)c3ccc4sc(-c5ccnc(N)n5)c(C)c4c3)CC2)c1 [Example 539, Cc1ccc(C)c(c1)N2CCN(CC2)C(═O)c3ccc4sc(c(C)c4c3)-c5ccnc(N)n5] | > 5 µM |
| COc1ccc(N2CCN(C(=O)c3ccc4sc(-c5ccnc(N)n5)c(C)c4c3)CC2)cc1 [Example 540, COc1ccc(cc1)N2CCN(CC2)C(═O)c3ccc4sc(c(C)c4c3)-c5ccnc(N)n5] | < 5 µM |
| COc1ccc(CCN(C)C(=O)c2ccc3sc(-c4ccnc(N)n4)c(C)c3c2)cc1OC [Example 543, COc1ccc(CCN(C)C(═O)c2ccc3sc(c(C)c3c2)-c4ccnc(N)n4)cc1OC] | > 5 µM |
| Cc1c(-c2ccnc(N)n2)sc2ccc(C(=O)N3CCN(CCN4CCOCC4)CC3)cc12 [Example 548, Cc1c(sc2ccc(cc12)C(═O)N3CCN(CCN4CCOCC4)CC3)-c5ccnc(N)n5] | > 5 µM |
| Cc1c(-c2ccnc(N)n2)sc2ccc(C(=O)N3CCC(N(C)C(=O)OC(C)(C)C)C3)cc12 (stereo not drawn) [Example 549, CN(C1CCN(C1)C(═O)c2ccc3sc(c(C)c3c2)-c4ccnc(N)n4)C(═O)OC(C)(C)C] | > 5 µM |
| CC(=O)c1ccc(N2CCN(C(=O)c3ccc4sc(-c5ccnc(N)n5)c(C)c4c3)CC2)cc1 [Example 550, CC(═O)c1ccc(cc1)N2CCN(CC2)C(═O)c3ccc4sc(c(C)c4c3)-c5ccnc(N)n5] | > 5 µM |
| CCN(CC)CCN(Cc1ccccc1)C(=O)c1ccc2sc(-c3ccnc(N)n3)c(C)c2c1 [Example 551, CCN(CC)CCN(Cc1ccccc1)C(═O)c2ccc3sc(c(C)c3c2)-c4ccnc(N)n4] | < 5 µM |
| Cc1c(-c2ccnc(N)n2)sc2ccc(C(=O)N3CCN(c4ccc([N+](=O)[O-])cc4)CC3)cc12 [Example 552, Cc1c(sc2ccc(cc12)C(═O)N3CCN(CC3)c4ccc(cc4)[N+]([O−])═O)-c5ccnc(N)n5] | < 5 µM |

Continued, values first:

| IC50 | SMILES |
| --- | --- |
| < 5 µM | Cc1c(-c2ccnc(N)n2)sc2ccc(C(=O)N(CCC#N)Cc3cccnc3)cc12 [Example 512, Cc1c(sc2ccc(cc12)C(═O)N(CCC#N)Cc3cccnc3)-c4ccnc(N)n4] |
| < 5 µM | Cc1c(-c2ccnc(N)n2)sc2ccc(C(=O)N3CCN(c4ccccc4)CC3)cc12 [Example 513, Cc1c(sc2ccc(cc12)C(═O)N3CCN(CC3)c4ccccc4)-c5ccnc(N)n5] |
| > 5 µM | Cc1c(-c2ccnc(N)n2)sc2ccc(C(=O)N3CCN(c4ccccn4)CC3)cc12 [Example 514, Cc1c(sc2ccc(cc12)C(═O)N3CCN(CC3)c4ccccn4)-c5ccnc(N)n5] |
| < 5 µM | Cc1c(-c2ccnc(N)n2)sc2ccc(C(=O)N(CCO)[C@H](C)c3ccccc3)cc12 [Example 516, C[C@@H](N(CCO)C(═O)c1ccc2sc(c(C)c2c1)-c3ccnc(N)n3)c4ccccc4] |
| < 5 µM | Cc1c(-c2ccnc(N)n2)sc2ccc(C(=O)N(CCCO)Cc3ccccn3)cc12 [Example 517, Cc1c(sc2ccc(cc12)C(═O)N(CCCO)Cc3ccccn3)-c4ccnc(N)n4] |
| > 5 µM | Cc1c(-c2ccnc(N)n2)sc2ccc(C(=O)N3CCC(Cc4ccccc4)CC3)cc12 [Example 520, Cc1c(sc2ccc(cc12)C(═O)N3CCC(CC3)Cc4ccccc4)-c5ccnc(N)n5] |
| > 5 µM | Cc1c(-c2ccnc(N)n2)sc2ccc(C(=O)N3CCN(Cc4ccccc4)CC3)cc12 [Example 521, Cc1c(sc2ccc(cc12)C(═O)N3CCN(CC3)Cc4ccccc4)-c5ccnc(N)n5] |
| < 5 µM | Cc1c(-c2ccnc(N)n2)sc2ccc(C(=O)N3CCCN(Cc4ccccc4)CC3)cc12 [Example 522, Cc1c(sc2ccc(cc12)C(═O)N3CCCN(CC3)Cc4ccccc4)-c5ccnc(N)n5] |
| < 5 µM | Cc1c(-c2ccnc(N)n2)sc2ccc(C(=O)N3CCN(c4ccc(O)cc4)CC3)cc12 [Example 523, Cc1c(sc2ccc(cc12)C(═O)N3CCN(CC3)c4ccc(O)cc4)-c5ccnc(N)n5] |
| < 5 µM | Cc1c(-c2ccnc(N)n2)sc2ccc(C(=O)N(CCN(C)C)Cc3ccccc3)cc12 [Example 524, CN(C)CCN(Cc1ccccc1)C(═O)c2ccc3sc(c(C)c3c2)-c4ccnc(N)n4] |
| > 5 µM | Cc1c(-c2ccnc(N)n2)sc2ccc(C(=O)N3CCN(c4ccccc4F)CC3)cc12 [Example 525, Cc1c(sc2ccc(cc12)C(═O)N3CCN(CC3)c4ccccc4F)-c5ccnc(N)n5] |
| < 5 µM | Cc1c(-c2ccnc(N)n2)sc2ccc(C(=O)N3CCN(c4ccc(F)cc4)CC3)cc12 [Example 526, Cc1c(sc2ccc(cc12)C(═O)N3CCN(CC3)c4ccc(F)cc4)-c5ccnc(N)n5] |
| > 5 µM | Cc1c(-c2ccnc(N)n2)sc2ccc(C(=O)N3CCN(CC4CCCCC4)CC3)cc12 [Example 527, Cc1c(sc2ccc(cc12)C(═O)N3CCN(CC3)CC4CCCCC4)-c5ccnc(N)n5] |
| < 5 µM | Cc1c(-c2ccnc(N)n2)sc2ccc(C(=O)N(C)C[C@H](O)c3ccc(O)c(O)c3)cc12 [Example 528, CN(C[C@H](O)c1ccc(O)c(O)c1)C(═O)c2ccc3sc(c(C)c3c2)-c4ccnc(N)n4] |
| > 5 µM | Cc1c(-c2ccnc(N)n2)sc2ccc(C(=O)N3CCN(C(=O)OC(C)(C)C)CC3)cc12 [Example 530, Cc1c(sc2ccc(cc12)C(═O)N3CCN(CC3)C(═O)OC(C)(C)C)-c4ccnc(N)n4] |
| < 5 µM | Cc1c(-c2ccnc(N)n2)sc2ccc(C(=O)N3CCC(NC(=O)OC(C)(C)C)C3)cc12 (stereo not drawn) [Example 531, Cc1c(sc2ccc(cc12)C(═O)N3CCC(C3)NC(═O)OC(C)(C)C)-c4ccnc(N)n4] |
| < 5 µM | Cc1c(-c2ccnc(N)n2)sc2ccc(C(=O)N3CCN(c4ccc(C#N)cn4)CC3)cc12 [Example 533, Cc1c(sc2ccc(cc12)C(═O)N3CCN(CC3)c4ccc(cn4)C#N)-c5ccnc(N)n5] |
| > 5 µM | Cc1cccc(N2CCN(C(=O)c3ccc4sc(-c5ccnc(N)n5)c(C)c4c3)CC2)c1C [Example 534, Cc1cccc(N2CCN(CC2)C(═O)c3ccc4sc(c(C)c4c3)-c5ccnc(N)n5)c1C] |
| > 5 µM | Cc1ccc(N2CCN(C(=O)c3ccc4sc(-c5ccnc(N)n5)c(C)c4c3)CC2)cc1C [Example 537, Cc1ccc(cc1C)N2CCN(CC2)C(═O)c3ccc4sc(c(C)c4c3)-c5ccnc(N)n5] |
| > 5 µM | COc1ccccc1N1CCN(C(=O)c2ccc3sc(-c4ccnc(N)n4)c(C)c3c2)CC1 [Example 541, COc1ccccc1N2CCN(CC2)C(═O)c3ccc4sc(c(C)c4c3)-c5ccnc(N)n5] |
| > 5 µM | COc1cccc(N2CCN(C(=O)c3ccc4sc(-c5ccnc(N)n5)c(C)c4c3)CC2)c1 [Example 542, COc1cccc(c1)N2CCN(CC2)C(═O)c3ccc4sc(c(C)c4c3)-c5ccnc(N)n5] |
| < 5 µM | Cc1c(-c2ccnc(N)n2)sc2ccc(C(=O)N3CCN(c4cccc(Cl)c4)CC3)cc12 [Example 544, Cc1c(sc2ccc(cc12)C(═O)N3CCN(CC3)c4cccc(Cl)c4)-c5ccnc(N)n5] |
| > 5 µM | Cc1c(-c2ccnc(N)n2)sc2ccc(C(=O)N3CCN(c4ccc(Cl)cc4)CC3)cc12 [Example 545, Cc1c(sc2ccc(cc12)C(═O)N3CCN(CC3)c4ccc(Cl)cc4)-c5ccnc(N)n5] |
| > 5 µM | Cc1c(-c2ccnc(N)n2)sc2ccc(C(=O)N3CCN(c4ccc(F)cc4F)CC3)cc12 [Example 546, Cc1c(sc2ccc(cc12)C(═O)N3CCN(CC3)c4ccc(F)cc4F)-c5ccnc(N)n5] |
| < 5 µM | Cc1c(-c2ccnc(N)n2)sc2ccc(C(=O)N(Cc3cccnc3)Cc3cccnc3)cc12 [Example 547, Cc1c(sc2ccc(cc12)C(═O)N(Cc3cccnc3)Cc4cccnc4)-c5ccnc(N)n5] |
